Source: patent publication US11591322B2, “Certain chemical compositions and methods of use thereof” (Algen Biotechnologies, Inc., priority 2020, dated 2023)

Experiments:
[1] = Pharmacokinetic and tissue distribution study, liver versus blood in mice; format: in vivo; settings: CD-1 mice, single oral dose 5 mg/kg suspension, 2 hours; compared with NVP-2 (FIG. 1)
Experimental: For mice experiments, the liver and blood pharmacokinetics of compounds were analyzed in CD-1 mice following a single oral administration dose of 5 mg/kg compound suspension.
Liver and blood samples for determination of compound concentration were obtained at 2 hours following administration of compounds (n=3 for each compound). The ratios of compound concentrations in liver versus blood in CD-1 mice following a single oral administration dose of 5 mg/kg compound suspension are summarized in FIG. 1.

CDK9/CyclinT = CDK9/CyclinT (Homo sapiens (Human), UniProt P50750); assay: CDK9 biochemical assay (Kinase-Glo Max luminescence); settings: 30° C. for 45 minutes
Experimental: To each well of a 96-well plate was added 5× kinase assay buffer with 10 mM DTT (6 μL), 500 μM ATP (1 μL), 5×CDK substrate (10 μL), and water (8 μL). 5 μL of compound were added to the test and positive control groups, while 5 μL of solvent was added to the blank groups. 100 ng of CDK9/CyclinT in 20 μL water was added to the test and positive control groups, while 20 μL of 1× kinase assay buffer was added to the blank groups. The reaction mixtures were incubated at 30° C. for 45 minutes, and 50 μL of Kinase-Glo® Max was added to each well and the plates were shielded from light and incubated for 15 minutes at room temperature. Luminescence was measured on a microplate reader and IC50 values were calculated using Prism 9 software.

HepG2 cells = assay: Cancer cell viability assay (CellTiter-Glo 2.0), HepG2; format: cell-based, Human; settings: HepG2, 72 hours compound treatment
Experimental: (§1) Human liver cancer cell lines HepG2, Hep3B, Huh7, and SK-HEP-1 cells were rinsed and trypsinized with 0.25% trypsin (Corning #25-053-CI) in an incubator at 37° C. until detached. The cells were resuspended and seeded in 96-well plates to a density of 5,000 cells per well. Following cell adhesion, compounds were added to a final concentration of 2× dilution. 72 hours following compound treatment, CellTiter-Glo® 2.0 was added to the well in a 2:1 ratio of media/CellTiter-Glo® 2.0. The plates were shielded from light, shaken for 2 minutes, and incubated for 10 minutes. Luminescence was measured on a microplate reader and EC50 values were calculated using Prism 9 software.

Hep3B cells = assay: Cancer cell viability assay (CellTiter-Glo 2.0), Hep3B; format: cell-based, Human; settings: 72 hours compound treatment
Experimental: as §1

SK-HEP-1 cells = assay: Cancer cell viability assay (CellTiter-Glo 2.0), SK-HEP-1; format: cell-based, Human; settings: SK-HEP-1, 72 hours compound treatment
Experimental: as §1

Huh7 cells = assay: Cancer cell viability assay (CellTiter-Glo 2.0), Huh7; format: cell-based, Human; settings: Huh7, 72 hours compound treatment
Experimental: as §1

[2] = Pharmacokinetic study, jugular vein versus portal vein blood in rats; format: in vivo, Sprague-Dawley (SD) rats; settings: SD rats, single oral dose 5 mg/kg suspension; compared with NVP-2 (FIG. 2)
Experimental: For rat experiments, the pharmacokinetics of compounds in blood collected from jugular vein and portal vein were analyzed in Sprague-Dawley (SD) rats following a single oral administration dose of 5 mg/kg compound suspension. Blood samples for determination of compound concentration were obtained from jugular vein and portal vein at 0.25 h, 0.5 h, 1 h, 2 h, 4 h, 6 h, 8 h, and 24 h following administration of compounds (n=3 for each compound). Collected liver and blood samples were analyzed using an LC-MS/MS method to quantify compound concentrations. The ratios of compound concentrations in blood collected from jugular vein versus portal vein in Sprague-Dawley (SD) rats following a single oral administration dose of 5 mg/kg compound suspension are summarized in FIG. 2.

[3] = Tolerability and safety assessment study (body weight change); format: in vivo; settings: BALB/c nude mice; compared with NVP-2 (FIG. 3)
Experimental: Based on the body weight, BALB/c nude mice were randomly assigned to respective groups using a computer-generated randomization procedure. Body weights of all animals were measured daily to record weight changes (relative to day 1) of BALB/c nude mice treated with vehicle and compounds. For routine monitoring, all study animals were monitored for behavior such as mobility, food and water consumption, body weight, eye/hair matting and any other abnormal effect. Any mortality and/or abnormal clinical signs were recorded. The animals were euthanized when they lost significant body mass (emaciated, obvious body weight loss >20%).

Chain of CDK9/CyclinT (P50750 whole entry): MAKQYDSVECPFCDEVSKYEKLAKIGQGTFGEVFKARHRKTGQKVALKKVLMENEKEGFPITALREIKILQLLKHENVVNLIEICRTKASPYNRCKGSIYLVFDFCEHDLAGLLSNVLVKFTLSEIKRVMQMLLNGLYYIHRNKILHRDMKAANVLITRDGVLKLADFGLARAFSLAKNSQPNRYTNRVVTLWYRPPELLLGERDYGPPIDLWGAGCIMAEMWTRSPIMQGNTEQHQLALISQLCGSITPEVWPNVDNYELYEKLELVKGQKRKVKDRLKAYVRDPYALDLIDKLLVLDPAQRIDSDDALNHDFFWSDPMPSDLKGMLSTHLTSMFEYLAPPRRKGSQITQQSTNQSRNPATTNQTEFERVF
Chain of CDK9/CyclinT (O60563 whole entry partner): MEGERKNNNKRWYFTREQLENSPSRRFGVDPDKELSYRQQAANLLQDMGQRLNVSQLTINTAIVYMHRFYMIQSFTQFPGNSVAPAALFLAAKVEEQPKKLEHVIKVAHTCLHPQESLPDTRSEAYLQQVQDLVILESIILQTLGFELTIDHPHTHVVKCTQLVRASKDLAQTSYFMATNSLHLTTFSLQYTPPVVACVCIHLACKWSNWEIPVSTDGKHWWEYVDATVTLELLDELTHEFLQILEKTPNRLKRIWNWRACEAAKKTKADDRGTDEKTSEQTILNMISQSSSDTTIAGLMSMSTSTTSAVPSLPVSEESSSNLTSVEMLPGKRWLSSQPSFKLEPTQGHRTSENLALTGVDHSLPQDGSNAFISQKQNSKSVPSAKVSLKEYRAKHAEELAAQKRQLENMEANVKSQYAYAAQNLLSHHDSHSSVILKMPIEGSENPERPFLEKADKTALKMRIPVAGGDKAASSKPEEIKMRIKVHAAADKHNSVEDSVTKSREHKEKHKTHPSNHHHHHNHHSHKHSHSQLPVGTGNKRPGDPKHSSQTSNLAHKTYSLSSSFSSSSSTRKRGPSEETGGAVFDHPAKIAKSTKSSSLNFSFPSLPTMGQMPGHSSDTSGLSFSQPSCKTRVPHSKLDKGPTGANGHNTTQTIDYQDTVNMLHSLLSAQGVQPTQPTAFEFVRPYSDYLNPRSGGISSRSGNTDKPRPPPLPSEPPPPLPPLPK

Row | SMILES | ratio of compound concentrations in liver versus blood [1] | IC50 (CDK9/CyclinT) [nM] | EC50 (HepG2 cells) [nM] | EC50 (Hep3B cells) [nM] | EC50 (SK-HEP-1 cells) [nM] | EC50 (Huh7 cells) [nM] | ratio of compound concentrations in blood from jugular vein versus portal vein (liver efflux/influx ratio) [2] | toxicity (mean weight changes relative to day 1) [3]
1 | C[C@H](COCCNS(=O)(=O)C(F)(F)F)NC1CCC(Nc2cc(-c3cccc(NCC4(C#N)CCOCC4)n3)c(Cl)cn2)CC1 (mixture of isomers) [Compound 40, N-(2-(2-(((1r,4r)-4-((5′-chloro-6-(((4-cyanotetrahydro-2H-pyran-4-yl)methyl)amino)-[2,4′-bipyridin]-2′-yl)amino)cyclohexyl)amino)propoxy)ethyl)-1,1,1-trifluoromethanesulfonamide] | higher liver/blood ratios than NVP-2 | 2.5 to 5 | < 100 | 100 to 500 |  |  |  | 
2 | C[C@H](COCc1nn[nH]n1)N[C@H]1CC[C@H](Nc2cc(-c3cccc(NCC4(C#N)CCOCC4)n3)c(Cl)cn2)CC1 [Compound 2, 4-(((2′-(((1R,4R)-4-(((R)-1-((2H-tetrazol-5-yl)methoxy)propan-2-yl)amino)cyclohexyl)amino)-5′-chloro-[2,4′-bipyridin]-6-yl)amino)methyl)tetrahydro-2H-pyran-4-carbonitrile] |  | > 10 | > 1000 | > 1000 | > 1000 | 500 to 1000 |  | 
3 | C[C@@H](COCc1nn[nH]n1)NC1CCC(Nc2cc(-c3cccc(NCC4(C#N)CCOCC4)n3)c(Cl)cn2)CC1 (stereo partly drawn) [Compound 3, 4-(((2′-(((1S,4R)-4-(((S)-1-((2H-tetrazol-5-yl)methoxy)propan-2-yl)amino)cyclohexyl)amino)-5′-chloro-[2,4′-bipyridin]-6-yl)amino)methyl)tetrahydro-2H-pyran-4-carbonitrile] |  | > 10 | > 1000 |  | > 1000 | > 1000 |  | 
4 | C[C@H](COCC(=O)O)NC1CCC(Nc2cc(-c3cccc(NCC4(C#N)CCOCC4)n3)c(Cl)cn2)CC1 (stereo partly drawn) [Compound 8, 2-((R)-2-(((1R,4R)-4-((5′-chloro-6-(((4-cyanotetrahydro-2H-pyran-4-yl)methyl)amino)-[2,4′-bipyridin]-2′-yl)amino)cyclohexyl)amino)propoxy)acetic acid] |  | 2.5 to 5 | > 1000 |  | > 1000 | > 1000 |  | 
5 | C[C@@H](COCC(=O)O)NC1CCC(Nc2cc(-c3cccc(NCC4(C#N)CCOCC4)n3)c(Cl)cn2)CC1 (stereo partly drawn) [Compound 9, 2-((S)-2-(((1R,4S)-4-((5′-chloro-6-(((4-cyanotetrahydro-2H-pyran-4-yl)methyl)amino)-[2,4′-bipyridin]-2′-yl)amino)cyclohexyl)amino)propoxy)acetic acid] |  | 5 to 10 | > 1000 | > 1000 | > 1000 | > 1000 |  | 
6 | C[C@H](COCC(=O)OC(C)(C)C)N[C@H]1CC[C@H](Nc2cc(-c3cccc(NCC4(C#N)CCOCC4)n3)c(Cl)cn2)CC1 [Compound 18, tert-butyl 2-((R)-2-(((1r,4R)-4-((5′-chloro-6-(((4-cyanotetrahydro-2H-pyran-4-yl)methyl)amino)-[2,4′-bipyridin]-2′-yl)amino)cyclohexyl)amino)propoxy)acetate] | higher liver/blood ratios than NVP-2 | > 10 | < 100 | < 100 | < 100 | < 100 | lower liver efflux/influx ratio than NVP-2 | lower toxicity than NVP-2
7 | C[C@@H](COCC(=O)OC(C)(C)C)N[C@H]1CC[C@H](Nc2cc(-c3cccc(NCC4(C#N)CCOCC4)n3)c(Cl)cn2)CC1 [Compound 19, tert-butyl 2-((S)-2-(((1r,4S)-4-((5′-chloro-6-(((4-cyanotetrahydro-2H-pyran-4-yl)methyl)amino)-[2,4′-bipyridin]-2′-yl)amino)cyclohexyl)amino)propoxy)acetate] |  | 2.5 to 5 | < 100 |  | < 100 | < 100 |  | 
8 | C[C@H](COCc1nnn(C)n1)N[C@H]1CC[C@H](Nc2cc(-c3cccc(NCC4(C#N)CCOCC4)n3)c(Cl)cn2)CC1 [Compound 33, 4-(((5′-chloro-2′-(((1R,4r)-4-(((R)-1-((2-methyl-2H-tetrazol-5-yl)methoxy)propan-2-yl)amino)cyclohexyl)amino)-[2,4′-bipyridin]-6-yl)amino)methyl)tetrahydro-2H-pyran-4-carbonitrile] | higher liver/blood ratios than NVP-2 | 5 to 10 | < 100 | 100 to 500 |  |  |  | 

Continued, in another order:

Row | ratio of compound concentrations in liver versus blood [1] | IC50 (CDK9/CyclinT) [nM] | EC50 (HepG2 cells) [nM] | EC50 (Hep3B cells) [nM] | EC50 (SK-HEP-1 cells) [nM] | EC50 (Huh7 cells) [nM] | SMILES | ratio of compound concentrations in blood from jugular vein versus portal vein (liver efflux/influx ratio) [2] | toxicity (mean weight changes relative to day 1) [3]
9 |  | < 2.5 | 500 to 1000 |  | < 100 | < 100 | CCOC(=O)COC[C@@H](C)NC1CCC(Nc2cc(-c3cccc(NCC4(C#N)CCOCC4)n3)c(Cl)cn2)CC1 (some centres unmarked) [Compound 5] |  | 
10 |  | < 2.5 | 500 to 1000 | 100 to 500 | < 100 | < 100 | CCOC(=O)COC[C@H](C)NC1CCC(Nc2cc(-c3cccc(NCC4(C#N)CCOCC4)n3)c(Cl)cn2)CC1 (some centres unmarked) [Compound 6] | lower liver efflux/influx ratio than NVP-2 | 
11 |  | 2.5 to 5 | < 100 |  | < 100 | < 100 | CC(C)OC(=O)COC[C@@H](C)N[C@H]1CC[C@H](Nc2cc(-c3cccc(NCC4(C#N)CCOCC4)n3)c(Cl)cn2)CC1 [Compound 15, isopropyl 2-((R)-2-(((1r,4R)-4-((5′-Chloro-6-(((4-Cyanotetrahydro-2H-pyran-4-yl)methyl)amino)-[2,4′-bipyridin]-2′-yl)amino)cyclohexyl)amino)propoxy)acetate] |  | 
12 |  | 5 to 10 | 100 to 500 |  | < 100 | < 100 | CC(C)OC(=O)COC[C@H](C)N[C@H]1CC[C@H](Nc2cc(-c3cccc(NCC4(C#N)CCOCC4)n3)c(Cl)cn2)CC1 [Compound 16, isopropyl 2-((S)-2-(((1r,4S)-4-((5′-chloro-6-(((4-cyanotetrahydro-2H-pyran-4-yl)methyl)amino)-[2,4′-bipyridin]-2′-yl)amino)cyclohexyl)amino)propoxy)acetate] |  | 
